Data published in patent US7601838B2, “2-Alkyl/aryl sulphonyl-1,2,3,4-tetrahydro-9H-pyrido (3,4-b) indole-3-carboxylic acid esters/amides useful as antithrombotic agents” (Council of Scientific and Industrial Research, priority 2004, dated 2009).

Legend:
[1] = tested on: collagen and epinephrine induced thrombosis in mice; test: Effect on mouse thrombosis: collagen and adrenaline induced pulmonary thromboembolism; type: in vivo
Protocol: Pulmonary thromboembolism was induced by following a method of Diminno and Silver^(1). Test compounds (30 μM/Kg) or vehicle were administered orally 60 min prior to the thrombotic challenge. A mixture of collagen (150 μg/ml) and adrenaline (50 μg/mL) was administered by the rapid intravenous injection into the tail vein to induce hind limb paralysis or death. A group of 10 animals were used to evaluate the effect of test compound, while 5 mice were used to assess effect of a standard drug, aspirin and a group of vehicle treated (n=5) mice was also used each experiment.
% Protection was expressed as: […]
Ptest is the number of animals paralyzed/dead in the test compound-treated group, and Pcontrol is the number of animals paralyzed/dead in vehicle treated group.

[2] = tested on: stasis induced thrombosis in LPS treated rabbits; test: Rabbit venous thrombosis model (stasis induced thrombosis in LPS treated rabbits); type: in vivo, New Zealand white strain rabbits
Protocol: (§1) [formula] 1.4 Evaluation of coagulation parameters: Blood was collected by cardiac puncture from ether-anaesthetized rat using a syringe containing 3.2% tri-sodium citrate (9:1, v/v). Plasma was obtained by centrifugation of citrated blood at 2500×g for 15 min at 20° C. Stock solutions of the test compounds were prepared freshly in DMSO and were diluted in DMSO. Thrombin time (TT), prothrombin time (PT) and activated partial thromboplastin time (aPTT) were evaluated according to manufacturer's instructions supplied with kits (Stago, France) and measured by Coagulometer (Stago, France)^(4). In each set of experiment effect of DMSO on these parameters was also assessed and was used to calculate change in TT, PT or aPTT. 1.5 Rabbit venous thrombosis model: Experiments were performed on New Zealand white strain rabbits (2-3 kg) either sex. Escherichia coli LPS strain 1055:B5 (Sigma Chemicals, USA) was injected intravenously via ear vein (1 μg/kg)^(5,6). Jugular veins on both sides were exposed and dissected free from surrounding tissue. Two loose surer were placed 1.5 cm apart and all collateral veins were ligated. Four hours after E. coli endotoxin injection (animal is watched for any signs of hypersensitivity reaction during this period), stasis was established and maintained for 45 min by tightening the two sutures. Ligated segments were removed and opened longitudinally and the thrombus was carefully removed and weighed. Heparin sodium (Beparine from beef intestinal mucosa ≧140 USP units/mg; Biological E. Limited, India) was given in doses of (0.5, 0.25, 0.1 mg/kg i.v., via ear vein) 5 min before stasis. 1.6 Effect of compound (i) on human platelet aggregation in vitro: Platelet aggregation study was done on human platelets following isolation of PRP from the human blood as described above (1.3). Aggregation was induced by collagen (10 μg/ml, 5 μg/ml), ADP (10 μM) and thrombin (0.5 U/ml). 2. Results: Effect of test compounds is indicated in the following table (1) against collagen and epinephrine induced thrombosis in mice, which is a primary screening model to detect antithrombotic efficacy of the test agents. At the same dose these compounds were also evaluated for their effect on the bleeding time in mouse (Table 1).
(§2) Effect on venous thrombosis model in rabbit: The selected compounds were evaluated at 10 μM/Kg and 30 μM/kg dose for their efficacy against stasis induced thrombosis in LPS treated rabbits. […] Ex vivo effect of selective compounds on rat platelet aggregation: Blood was collected in sodium citrate to obtain PRP and evaluate the ex vivo effect of selective compounds ((i), (ii), (iii) at 30 μM/kg administered by the ip route) against ADP, collagen, phorbol myristate ester (PMA) calcium ionophore (A23187), or thrombin induced aggregation. It was observed that all these compounds were consistent against collagen-induced platelet aggregation (Table 3). (iii) inhibited ADP (10 μM), collagen (10 μg/ml), PMA (1.5 μM), and thrombin (0.64 U/ml) induced platelet aggregation while no inhibition was found against calcium ionophore A23187 (2.5 μg/ml) induced platelet aggregation. […] Effect on clotting parameters: The selected compounds were also tested in vitro for their effect on thrombin time (TT), prothrombin time (PT) and activated partial thromboplastin time (aPTT) at 100 μg/ml and 200 μg/ml in vitro (Table 4). The test compounds at 100 μg/ml had no significant effect of on these parameters. Some effect was though seen on PT at 200 μg/ml concentration, but the concentration seems to be quite high.
Values are Mean±; Compound (i); n=2, Compound (ii); n=4, Compound (iii), n=4 [n is no. of observations in 2 or more animals at 10 μM/Kg or 30 μM/Kg p.o. administered 2 h prior to the stasis] or vehicle control [n=10 observations in five animals]. In heparin treated group n=6 observations for each dose in nine animals.

[3] = tested on: thrombin time (TT), prothrombin time (PT) and activated partial thromboplastin time (aPTT); test: Evaluation of coagulation parameters (TT, PT, aPTT) in rat plasma in vitro; type: biochemical
Protocol: as §1, §2

[4] = tested on: rat platelet aggregation; test: Ex vivo effect on rat platelet aggregation (PRP, aggregometer); type: cell-based, Sprague Dawley rats; conditions: 30 μM/kg ip; for % Aggregation / % Inhibition: rat PRP
Protocol: Sodium citrate: The blood was centrifuged at 275×g for 20 min and the platelet rich plasma (PRP) was collect. The remaining blood was further centrifuged at 1500 g for 15 min at 20° C. to obtain platelet poor plasma (PPP). The platelet count in the PRP was adjusted to 2×10^8 cells/ml by using PPP. Adenosine-5′-diphosphate (ADP), thrombin, collagen, calcium ionophore A23187 or phorbol myristate ester (PMA) induced aggregation was monitored on a dual channel aggregometer (Chrono-log, USA). The test compound was incubated with PRP or 5 min before the addition of aggregation on inducing agent. Percent inhibition of the test compounds at various concentrations was calculated as follows: […]
as §2

[5] = 30 μM/kg orally 60 min prior to collagen + adrenaline challenge
[6] = 30 μM/Kg dose p.o. 2 h prior to the stasis

With `COC(=O)C1Cc2c([nH]c3ccccc23)CN1S(=O)(=O)c1cccc2ccccc12` (racemic) [d, 2[1-naphthylsulfonyl]-1,2,3,4,-tetrahydro-9H-pyrido[3,4-b]indole-3-carboxylic acid ester] the “Antithrombotic activity (AT) (% protection)” value [1, 5] was 20%.
With `Cc1cc(C)c(S(=O)(=O)N2Cc3[nH]c4ccccc4c3CC2C(N)=O)c(C)c1` (stereo not shown) [v] the “Antithrombotic activity (AT) (% protection)” value [1, 5] was 30%.
For `NC(=O)C1Cc2c([nH]c3ccccc23)CN1S(=O)(=O)c1ccc(F)cc1` (stereo not shown) [s, 2[-4-fluorobenzenesulfonyl]-1,2,3,4,-tetrahydro-9H-pyrido[3,4-b]indole-3-carboxylic acid amide], the “Antithrombotic activity (AT) (% protection)” value [1, 5] was 60%.
In the case of `NC(=O)C1Cc2c([nH]c3ccccc23)CN1S(=O)(=O)c1cccc([N+](=O)[O-])c1` (stereo not shown) [u], the “Antithrombotic activity (AT) (% protection)” value [1, 5] is reported as 45%.
In the case of `NC(=O)C1Cc2c([nH]c3ccccc23)CN1S(=O)(=O)c1cccc2ccccc12` (stereo not shown) [q, 2[-1-naphthylsulfonyl]-1,2,3,4,-tetrahydro-9H-pyrido[3,4-b]indole-3-carboxylic acid amide], the “Antithrombotic activity (AT) (% protection)” value [1, 5] is reported as 20%.
`COC(=O)C1Cc2c([nH]c3ccccc23)CN1S(C)(=O)=O` (racemic) [k, 2[methylsulfonyl]-1,2,3,4,-tetrahydro-9H-pyrido[3,4-b]indole-3-carboxylic acid ester] was tested, and the “Antithrombotic activity (AT) (% protection)” value [1, 5] was 50%.
With `NC(=O)C1Cc2c([nH]c3ccccc23)CN1S(=O)(=O)c1ccc2ccccc2c1` (stereo not shown) [Compound (iii), 2-[2-naphthalenesulfonyl]-1,2,3,4,-tetrahydro-9H-pyrido[3,4-b]indole-3-carboxylic acid amide] the “protection against collagen and epinephrine induced thrombosis (in words)” value ([1]; 30 μM/kg) was “exhibited significant protection”, the “Antithrombotic activity (AT) (% protection)” value [1, 5] was 70 ± 0 (n = 3) % and the “% Reduction (thrombus wt.)” value [2, 6] was 57%. For the same molecule, the Thrombus wt. [2, 6] was 11 ± 5, the “Activated partial thromboplastin time (aPTT) % Change” value ([3]; 100 μg/ml in vitro) was 11 ± 4% and the “Prothrombin time (PT) % Change” value ([3]; 100 μg/ml in vitro) was −0.24 ± 0.8%. The “Thrombin time (TT) % Change” value ([3]; 100 μg/ml in vitro) was 10 ± 4%, the “Activated partial thromboplastin time (aPTT) % Change” value ([3]; 200 μg/ml in vitro) was 10 ± 8% and the “Prothrombin time (PT) % Change” value ([3]; 200 μg/ml in vitro) was 9 ± 0.2%. For the same molecule, the “Thrombin time (TT) % Change” value ([3]; 200 μg/ml in vitro) was 6 ± 1%, the “% Aggregation” value ([4]; A23187 (2.5 μg/ml) induced) was 57 ± 6% and the “% Inhibition” value ([4]; A23187 (2.5 μg/ml) induced) was −25 ± 2%. The “inhibition of calcium ionophore A23187 induced platelet aggregation (in words)” value ([4]; A23187 (2.5 μg/ml), rat) was “no inhibition”, the “% Aggregation” value ([4]; ADP (10 μM) induced) was 2 ± 0.4% and the “% Inhibition” value ([4]; ADP (10 μM) induced) was 94 ± 0.2%. The “inhibition of ADP induced platelet aggregation (in words)” value ([4]; ADP (10 μM), rat) was “inhibited”, the “% Aggregation” value ([4]; Collagen (10 μg/ml) induced) was 2.5 ± 0% and the “% Inhibition” value ([4]; Collagen (10 μg/ml) induced) was 47 ± 13%. The “% Aggregation” value ([4]; PMA (1.5 μM) induced) was 38 ± 13%, the “% Inhibition” value ([4]; PMA (1.5 μM) induced) was 32 ± 5% and the “inhibition of PMA induced platelet aggregation (in words)” value ([4]; PMA (1.5 μM), rat) was “inhibited”. The “% Aggregation” value ([4]; Thrombin (0.64 U/ml) induced) was 28 ± 3%, the “% Inhibition” value ([4]; Thrombin (0.64 U/ml) induced) was 40 ± 6% and the “inhibition of collagen induced platelet aggregation (in words)” value ([4]; collagen (10 μg/ml), rat) was “inhibited”. For the same molecule, the “inhibition of thrombin induced platelet aggregation (in words)” value ([4]; thrombin (0.64 U/ml), rat) was “inhibited”.
For `COc1ccc2c(c1)c(CC(=O)O)c(C)n2C(=O)c1ccc(Cl)cc1` [Indomethacin, reference compound], the “Antithrombotic activity (AT) (% protection)” value ([1]; 10 mg/kg (indomethacin)) was 55 ± 15 (n = 20) %.
For `COC(=O)C1Cc2c([nH]c3ccccc23)CN1S(=O)(=O)c1c(C)cc(C)cc1C` (racemic) [b, 2[2,4,6, trimethylbenzenesulfonyl]-1,2,3,4,-tetrahydro-9H-pyrido[3,4-b]indole-3-carboxylic acid ester], the “Antithrombotic activity (AT) (% protection)” value [1, 5] was 20%.
For `COC(=O)C1Cc2c([nH]c3ccccc23)CN1S(=O)(=O)c1c(C(C)C)cc(C(C)C)cc1C(C)C` (racemic) [h, 2[2,4,6 triisopropylbenzenesulfonyl]-1,2,3,4,-tetrahydro-9H-pyrido[3,4-b]indole-3-carboxylic acid ester], the “Antithrombotic activity (AT) (% protection)” value [1, 5] was 0%.
For `NC(=O)C1Cc2c([nH]c3ccccc23)CN1S(=O)(=O)c1cccc2cccnc12` (stereo not shown) [r, 2[8-quinolinesulfonyl]-1,2,3,4,-tetrahydro-9H-pyrido[3,4-b]indole-3-carboxylic acid amide], the “Antithrombotic activity (AT) (% protection)” value [1, 5] was 30%.
With `COC(=O)C1Cc2c([nH]c3ccccc23)CN1S(=O)(=O)c1cccc2c(N(C)C)cccc12` (racemic) [g, 2-[dansylsulfonyl]-1,2,3,4,-tetrahydro-9H-pyrido[3,4-b]indole-3-carboxylic acid ester] the “Antithrombotic activity (AT) (% protection)” value [1, 5] was 20%.
For `NC(=O)C1Cc2c([nH]c3ccccc23)CN1S(=O)(=O)c1cc(Cl)ccc1Cl` (stereo not shown) [o, 2[-2,5-dichlorobenzenesulfonyl]-1,2,3,4,-tetrahydro-9H-pyrido[3,4-b]indole-3-carboxylic acid amide], the “Antithrombotic activity (AT) (% protection)” value [1, 5] was 40%.
In the case of `COC(=O)C1Cc2c([nH]c3ccccc23)CN1S(=O)(=O)c1ccc(C)cc1` (racemic) [n, 2[4-methylbenzenesulfonyl]-1,2,3,4,-tetrahydro-9H-pyrido[3,4-b]indole-3-carboxylic acid ester], the “inhibition of thrombus formation (in words)” value ([2]; evaluated at 10 μM/Kg and 30 μM/kg dose) is reported as “inhibited thrombus formations only at 30 μM/Kg”.
With `COC(=O)C1Cc2c([nH]c3ccccc23)CN1S(=O)(=O)c1ccccc1[N+](=O)[O-]` (racemic) [c, 2[2, nitrobenzenesulfonyl]-1,2,3,4,-tetrahydro-9H-pyrido[3,4-b]indole-3-carboxylic acid ester] the “Antithrombotic activity (AT) (% protection)” value [1, 5] was 0%.
`COC(=O)C1Cc2c([nH]c3ccccc23)CN1S(=O)(=O)c1ccc(OC)cc1` (racemic) [e] was tested, and the “Antithrombotic activity (AT) (% protection)” value [1, 5] was 0%.
For `COC(=O)C1Cc2c([nH]c3ccccc23)CN1S(=O)(=O)c1ccc(F)cc1` (racemic) [i, 2[4-fluorobenzenesulfonyl]-1,2,3,4,-tetrahydro-9H-pyrido[3,4-b]indole-3-carboxylic acid ester], the “Antithrombotic activity (AT) (% protection)” value [1, 5] was 0%.
`CS(=O)(=O)N1Cc2[nH]c3ccccc3c2CC1C(N)=O` (stereo not shown) [t, 2[methanesulfonyl]-1,2,3,4,-tetrahydro-9H-pyrido[3,4-b]indole-3-carboxylic acid amide] was tested, and the “Antithrombotic activity (AT) (% protection)” value [1, 5] was 30%.
With `COC(=O)C1Cc2c([nH]c3ccccc23)CN1S(=O)(=O)c1cccc2cccnc12` (racemic) [f, 2[8-quinolinesulfonyl]-1,2,3,4,-tetrahydro-9H-pyrido[3,4-b]indole-3-carboxylic acid ester] the “Antithrombotic activity (AT) (% protection)” value [1, 5] was 20%.
